Laboratory results reported in the kinase profiling compilation of Christmann-Franck et al. (2016).

Columns and labels:
Assay in all cases: KINOMEscan competition binding
Conditions in all cases: compound 10.0 µM
[1] = target: AURKA (human) (UniProt O14965)
[2] = target: CAMK1D (human) (UniProt Q8IU85)
[3] = target: CAMK2A (human) (UniProt Q9UQM7)
[4] = target: CAMK2G (human) (UniProt Q13555)
[5] = target: CDK14 (human) (UniProt O94921)
[6] = target: CDK17 (human) (UniProt Q00537)
[7] = target: CDK8 (human) (UniProt P49336)
[8] = target: CDK9 (human) (UniProt P50750)
[9] = target: CIT (human) (UniProt O14578)
[10] = target: CLK3 (human) (UniProt P49761)
[11] = target: DCLK1 (human) (UniProt O15075)
[12] = target: FGFR1 (human) (UniProt P11362)
[13] = target: HIPK1 (human) (UniProt Q86Z02)
[14] = target: HIPK3 (human) (UniProt Q9H422)
[15] = target: INSR (human) (UniProt P06213)
[16] = target: KIT (human) (UniProt P10721)
KIT (human), sequence (P10721 whole entry, looked up): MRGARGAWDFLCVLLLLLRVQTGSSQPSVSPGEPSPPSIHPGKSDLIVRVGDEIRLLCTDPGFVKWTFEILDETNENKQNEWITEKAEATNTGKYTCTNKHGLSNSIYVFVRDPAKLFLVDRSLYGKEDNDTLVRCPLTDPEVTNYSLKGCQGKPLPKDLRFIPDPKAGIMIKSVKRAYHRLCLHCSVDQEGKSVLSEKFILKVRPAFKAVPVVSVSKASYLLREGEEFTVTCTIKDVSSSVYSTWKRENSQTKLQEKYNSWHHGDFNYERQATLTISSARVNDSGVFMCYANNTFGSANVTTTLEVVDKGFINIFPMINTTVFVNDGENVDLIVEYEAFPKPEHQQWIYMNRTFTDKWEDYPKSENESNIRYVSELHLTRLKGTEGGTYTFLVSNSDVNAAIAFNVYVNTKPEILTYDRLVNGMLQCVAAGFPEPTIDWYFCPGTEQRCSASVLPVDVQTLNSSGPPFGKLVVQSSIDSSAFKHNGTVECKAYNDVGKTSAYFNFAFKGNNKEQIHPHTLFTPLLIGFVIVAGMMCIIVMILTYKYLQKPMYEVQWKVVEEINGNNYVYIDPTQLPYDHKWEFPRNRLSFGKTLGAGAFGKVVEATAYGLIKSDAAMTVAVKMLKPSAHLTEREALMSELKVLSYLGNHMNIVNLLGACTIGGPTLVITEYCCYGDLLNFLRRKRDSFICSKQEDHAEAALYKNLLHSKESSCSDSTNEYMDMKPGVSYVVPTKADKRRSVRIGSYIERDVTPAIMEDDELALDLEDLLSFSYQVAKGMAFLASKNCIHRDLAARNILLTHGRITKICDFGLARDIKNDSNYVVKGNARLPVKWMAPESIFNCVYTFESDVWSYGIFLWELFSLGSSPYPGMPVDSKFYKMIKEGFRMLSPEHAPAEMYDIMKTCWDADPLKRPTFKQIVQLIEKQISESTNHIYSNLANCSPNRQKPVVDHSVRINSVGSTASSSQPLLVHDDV

[17] = target: LRRK2 (human) (UniProt Q5S007)
[18] = target: MAP3K3 (human) (UniProt Q99759)
[19] = target: MAPK8 (human) (UniProt P45983)
MAPK8 (human), sequence (P45983 whole entry, looked up): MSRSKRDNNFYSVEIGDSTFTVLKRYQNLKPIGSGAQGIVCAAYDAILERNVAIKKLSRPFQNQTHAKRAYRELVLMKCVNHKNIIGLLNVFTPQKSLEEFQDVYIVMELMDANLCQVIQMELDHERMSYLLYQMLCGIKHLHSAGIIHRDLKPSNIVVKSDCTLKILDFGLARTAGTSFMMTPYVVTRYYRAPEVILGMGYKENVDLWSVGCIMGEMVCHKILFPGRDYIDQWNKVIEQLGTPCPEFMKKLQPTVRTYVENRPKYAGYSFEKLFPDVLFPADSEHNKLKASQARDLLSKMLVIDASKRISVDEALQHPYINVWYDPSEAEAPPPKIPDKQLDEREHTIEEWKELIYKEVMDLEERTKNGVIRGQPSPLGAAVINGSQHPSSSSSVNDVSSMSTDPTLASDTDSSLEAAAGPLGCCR

[20] = target: MATK (human) (UniProt P42679)
[21] = target: MYO3B (human) (UniProt Q8WXR4)
[22] = target: NEK1 (human) (UniProt Q96PY6)
[23] = target: PAK7 (human) (UniProt Q9P286)
[24] = target: PIK3CG (human) (UniProt P48736)
PIK3CG (human), sequence (P48736 whole entry, looked up): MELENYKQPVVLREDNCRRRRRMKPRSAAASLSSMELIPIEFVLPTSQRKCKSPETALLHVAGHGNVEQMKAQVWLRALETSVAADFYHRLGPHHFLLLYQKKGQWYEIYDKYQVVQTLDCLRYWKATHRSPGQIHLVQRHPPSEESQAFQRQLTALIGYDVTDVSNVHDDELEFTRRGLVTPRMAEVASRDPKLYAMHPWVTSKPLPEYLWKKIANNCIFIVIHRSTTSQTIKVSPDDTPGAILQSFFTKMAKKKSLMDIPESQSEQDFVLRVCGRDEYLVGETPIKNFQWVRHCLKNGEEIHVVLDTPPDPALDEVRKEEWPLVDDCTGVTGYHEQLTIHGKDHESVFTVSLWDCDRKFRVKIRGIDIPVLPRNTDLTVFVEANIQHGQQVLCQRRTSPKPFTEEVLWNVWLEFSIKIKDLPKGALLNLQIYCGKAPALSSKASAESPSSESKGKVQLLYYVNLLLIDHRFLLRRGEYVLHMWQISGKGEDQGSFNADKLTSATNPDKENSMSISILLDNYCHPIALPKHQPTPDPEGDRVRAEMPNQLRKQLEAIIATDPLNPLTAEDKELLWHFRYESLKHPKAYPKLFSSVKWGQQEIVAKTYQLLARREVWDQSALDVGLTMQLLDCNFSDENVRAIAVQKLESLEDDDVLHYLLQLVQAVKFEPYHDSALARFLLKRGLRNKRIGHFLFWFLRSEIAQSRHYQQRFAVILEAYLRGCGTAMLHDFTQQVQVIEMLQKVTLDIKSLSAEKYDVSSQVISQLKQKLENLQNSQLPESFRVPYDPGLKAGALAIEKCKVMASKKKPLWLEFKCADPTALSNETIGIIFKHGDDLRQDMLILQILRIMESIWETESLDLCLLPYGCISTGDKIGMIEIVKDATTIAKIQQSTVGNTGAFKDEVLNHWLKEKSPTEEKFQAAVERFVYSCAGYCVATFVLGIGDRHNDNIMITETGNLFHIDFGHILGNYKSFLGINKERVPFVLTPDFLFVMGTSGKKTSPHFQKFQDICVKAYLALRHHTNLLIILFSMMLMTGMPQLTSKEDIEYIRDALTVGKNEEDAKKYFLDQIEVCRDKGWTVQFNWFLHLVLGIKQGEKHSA

[25] = target: PIP4K2C (human) (UniProt Q8TBX8)
[26] = target: PLK1 (human) (UniProt P53350)
[27] = target: PLK4 (human) (UniProt O00444)
PLK4 (human), sequence (O00444 whole entry, looked up): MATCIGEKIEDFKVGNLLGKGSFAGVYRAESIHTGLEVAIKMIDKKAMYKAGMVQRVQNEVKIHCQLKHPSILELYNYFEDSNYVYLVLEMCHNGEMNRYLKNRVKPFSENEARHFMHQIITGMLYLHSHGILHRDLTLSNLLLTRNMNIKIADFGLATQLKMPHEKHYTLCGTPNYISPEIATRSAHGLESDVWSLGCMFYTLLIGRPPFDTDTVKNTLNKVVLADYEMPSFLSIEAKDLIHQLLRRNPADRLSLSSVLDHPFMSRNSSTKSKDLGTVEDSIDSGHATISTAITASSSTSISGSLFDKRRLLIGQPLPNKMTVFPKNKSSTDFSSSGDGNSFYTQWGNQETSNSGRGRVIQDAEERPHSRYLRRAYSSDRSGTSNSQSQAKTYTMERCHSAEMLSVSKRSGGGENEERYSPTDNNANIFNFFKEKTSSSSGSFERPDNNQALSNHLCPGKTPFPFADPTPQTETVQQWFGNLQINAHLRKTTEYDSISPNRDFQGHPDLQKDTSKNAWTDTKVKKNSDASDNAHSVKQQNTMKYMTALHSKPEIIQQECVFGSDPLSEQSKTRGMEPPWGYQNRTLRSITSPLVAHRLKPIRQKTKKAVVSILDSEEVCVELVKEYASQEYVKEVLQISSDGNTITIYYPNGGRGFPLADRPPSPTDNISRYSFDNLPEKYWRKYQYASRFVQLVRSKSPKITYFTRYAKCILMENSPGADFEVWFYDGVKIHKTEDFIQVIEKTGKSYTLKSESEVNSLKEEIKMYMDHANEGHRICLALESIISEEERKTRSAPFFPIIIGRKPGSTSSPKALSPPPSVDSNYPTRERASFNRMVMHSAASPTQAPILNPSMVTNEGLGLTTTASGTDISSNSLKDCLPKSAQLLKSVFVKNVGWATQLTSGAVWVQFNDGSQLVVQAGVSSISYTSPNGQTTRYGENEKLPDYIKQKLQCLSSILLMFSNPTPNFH

[28] = target: PRKCI (human) (UniProt P41743)
[29] = target: PRKG2 (human) (UniProt Q13237)
[30] = target: RPS6KA3 KD1 (human) (UniProt P51812)
[31] = target: RPS6KB1 (human) (UniProt P23443)
[32] = target: SBK1 (human) (UniProt Q52WX2)
[33] = target: STK10 (human) (UniProt O94804)
[34] = target: STK17A (human) (UniProt Q9UEE5)
[35] = target: STK36 (human) (UniProt Q9NRP7)
[36] = target: TAOK3 (human) (UniProt Q9H2K8)
[37] = target: TLK2 (human) (UniProt Q86UE8)
[38] = target: TNIK (human) (UniProt Q9UKE5)
[39] = target: TNK1 (human) (UniProt Q13470)
TNK1 (human), sequence (Q13470 whole entry, looked up): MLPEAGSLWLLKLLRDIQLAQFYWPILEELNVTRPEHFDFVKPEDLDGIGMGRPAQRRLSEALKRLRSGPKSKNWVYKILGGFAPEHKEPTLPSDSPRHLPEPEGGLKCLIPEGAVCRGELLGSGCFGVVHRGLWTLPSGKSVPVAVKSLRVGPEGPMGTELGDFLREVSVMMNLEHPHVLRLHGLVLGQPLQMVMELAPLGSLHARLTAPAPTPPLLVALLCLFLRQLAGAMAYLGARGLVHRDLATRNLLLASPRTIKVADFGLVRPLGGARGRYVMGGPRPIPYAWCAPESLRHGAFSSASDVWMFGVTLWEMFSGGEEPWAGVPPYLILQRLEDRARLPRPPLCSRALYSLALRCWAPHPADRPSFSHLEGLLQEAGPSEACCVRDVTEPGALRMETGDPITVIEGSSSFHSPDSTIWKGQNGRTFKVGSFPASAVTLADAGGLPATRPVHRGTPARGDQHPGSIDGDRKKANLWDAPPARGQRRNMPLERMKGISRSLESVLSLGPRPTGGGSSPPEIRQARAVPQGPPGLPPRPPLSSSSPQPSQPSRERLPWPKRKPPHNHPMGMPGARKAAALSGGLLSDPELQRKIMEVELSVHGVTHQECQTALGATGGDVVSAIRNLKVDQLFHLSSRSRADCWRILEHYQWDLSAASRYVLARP

[40] = target: TSSK1B (human) (UniProt Q9BXA7)
TSSK1B (human), sequence (Q9BXA7 whole entry, looked up): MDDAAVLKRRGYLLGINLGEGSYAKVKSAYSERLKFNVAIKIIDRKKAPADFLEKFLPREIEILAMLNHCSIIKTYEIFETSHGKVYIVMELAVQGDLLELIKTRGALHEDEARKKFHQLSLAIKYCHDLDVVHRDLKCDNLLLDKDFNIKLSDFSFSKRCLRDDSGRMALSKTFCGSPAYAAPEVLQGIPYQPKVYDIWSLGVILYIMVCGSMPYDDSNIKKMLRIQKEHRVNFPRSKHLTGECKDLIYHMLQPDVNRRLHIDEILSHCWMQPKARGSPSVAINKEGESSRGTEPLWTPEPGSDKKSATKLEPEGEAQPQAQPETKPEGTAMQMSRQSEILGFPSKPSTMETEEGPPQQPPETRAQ

CAMK2G (human), sequence (Q13555 whole entry, looked up): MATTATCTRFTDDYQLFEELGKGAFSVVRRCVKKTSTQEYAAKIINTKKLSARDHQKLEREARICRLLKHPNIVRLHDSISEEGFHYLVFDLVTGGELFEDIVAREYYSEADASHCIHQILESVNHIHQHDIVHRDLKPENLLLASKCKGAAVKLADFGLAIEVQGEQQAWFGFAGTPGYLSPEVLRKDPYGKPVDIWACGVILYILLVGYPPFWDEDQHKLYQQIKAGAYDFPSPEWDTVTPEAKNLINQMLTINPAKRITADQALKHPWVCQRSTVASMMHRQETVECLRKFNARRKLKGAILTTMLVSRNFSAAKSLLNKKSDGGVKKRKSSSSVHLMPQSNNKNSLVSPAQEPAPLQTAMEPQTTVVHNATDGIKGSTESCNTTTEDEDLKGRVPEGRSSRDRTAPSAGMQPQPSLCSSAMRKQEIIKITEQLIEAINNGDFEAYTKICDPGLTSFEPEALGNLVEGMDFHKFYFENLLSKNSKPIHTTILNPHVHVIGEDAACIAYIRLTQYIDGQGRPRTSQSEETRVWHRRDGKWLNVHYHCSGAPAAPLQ

## COc1cc(C(=O)N2CCC(N3CCN(C)CC3)CC2)ccc1Nc1ncc2c(n1)N(C)c1ccccc1C(=O)N2C
[1]
  kinase still bound, per cent of control: 1.2%
[2]
  kinase still bound, per cent of control: 69%
[3]
  kinase still bound, per cent of control: 21%
[4]
  kinase still bound, per cent of control: 47%
[5]
  kinase still bound, per cent of control: 81%
[6]
  kinase still bound, per cent of control: 83%
[7]
  kinase still bound, per cent of control: 100%
[8]
  kinase still bound, per cent of control: 100%
[9]
  kinase still bound, per cent of control: 99%
[10]
  kinase still bound, per cent of control: 95%
[11]
  kinase still bound, per cent of control: 4.2%
[12]
  kinase still bound, per cent of control: 86%
[13]
  kinase still bound, per cent of control: 100%
[14]
  kinase still bound, per cent of control: 89%
[15]
  kinase still bound, per cent of control: 84%
[16]
  kinase still bound, per cent of control: 100%
[17]
  kinase still bound, per cent of control: 0%
[18]
  kinase still bound, per cent of control: 97%
[19]
  kinase still bound, per cent of control: 95%
[20]
  kinase still bound, per cent of control: 100%
[21]
  kinase still bound, per cent of control: 83%
[22]
  kinase still bound, per cent of control: 83%
[23]
  kinase still bound, per cent of control: 96%
[24]
  kinase still bound, per cent of control: 15%
[25]
  kinase still bound, per cent of control: 40%
[26]
  kinase still bound, per cent of control: 0.7%
[27]
  kinase still bound, per cent of control: 0%
[28]
  kinase still bound, per cent of control: 100%
[29]
  kinase still bound, per cent of control: 74%
[30]
  kinase still bound, per cent of control: 77%
[31]
  kinase still bound, per cent of control: 100%
[32]
  kinase still bound, per cent of control: 100%
[33]
  kinase still bound, per cent of control: 100%
[34]
  kinase still bound, per cent of control: 100%
[35]
  kinase still bound, per cent of control: 97%
[36]
  kinase still bound, per cent of control: 24%
[37]
  kinase still bound, per cent of control: 99%
[38]
  kinase still bound, per cent of control: 100%
[39]
  kinase still bound, per cent of control: 2.8%
[40]
  kinase still bound, per cent of control: 60%

## O=c1cc(N2CCOCC2)oc2c(-c3cccc4c3sc3ccccc34)cccc12
[1]
  kinase still bound, per cent of control: 98%
[2]
  kinase still bound, per cent of control: 68%
[3]
  kinase still bound, per cent of control: 78%
[4]
  kinase still bound, per cent of control: 86%
[5]
  kinase still bound, per cent of control: 100%
[6]
  kinase still bound, per cent of control: 100%
[7]
  kinase still bound, per cent of control: 100%
[8]
  kinase still bound, per cent of control: 98%
[9]
  kinase still bound, per cent of control: 85%
[10]
  kinase still bound, per cent of control: 100%
[11]
  kinase still bound, per cent of control: 84%
[12]
  kinase still bound, per cent of control: 93%
[13]
  kinase still bound, per cent of control: 93%
[14]
  kinase still bound, per cent of control: 92%
[15]
  kinase still bound, per cent of control: 66%
[16]
  kinase still bound, per cent of control: 80%
[17]
  kinase still bound, per cent of control: 100%
[18]
  kinase still bound, per cent of control: 92%
[19]
  kinase still bound, per cent of control: 88%
[20]
  kinase still bound, per cent of control: 99%
[21]
  kinase still bound, per cent of control: 100%
[22]
  kinase still bound, per cent of control: 58%
[23]
  kinase still bound, per cent of control: 96%
[24]
  kinase still bound, per cent of control: 1.3%
[25]
  kinase still bound, per cent of control: 89%
[26]
  kinase still bound, per cent of control: 94%
[27]
  kinase still bound, per cent of control: 90%
[28]
  kinase still bound, per cent of control: 100%
[29]
  kinase still bound, per cent of control: 93%
[30]
  kinase still bound, per cent of control: 84%
[31]
  kinase still bound, per cent of control: 67%
[32]
  kinase still bound, per cent of control: 100%
[33]
  kinase still bound, per cent of control: 100%
[34]
  kinase still bound, per cent of control: 95%
[35]
  kinase still bound, per cent of control: 100%
[36]
  kinase still bound, per cent of control: 97%
[37]
  kinase still bound, per cent of control: 80%
[38]
  kinase still bound, per cent of control: 100%
[39]
  kinase still bound, per cent of control: 100%
[40]
  kinase still bound, per cent of control: 83%

## N#CCNC(=O)c1ccc(-c2ccnc(Nc3ccc(N4CCOCC4)cc3)n2)cc1
[1]
  kinase still bound, per cent of control: 12%
[2]
  kinase still bound, per cent of control: 40%
[3]
  kinase still bound, per cent of control: 26%
[4]
  kinase still bound, per cent of control: 36%
[5]
  kinase still bound, per cent of control: 76%
[6]
  kinase still bound, per cent of control: 55%
[7]
  kinase still bound, per cent of control: 100%
[8]
  kinase still bound, per cent of control: 55%
[9]
  kinase still bound, per cent of control: 0.35%
[10]
  kinase still bound, per cent of control: 91%
[11]
  kinase still bound, per cent of control: 52%
[12]
  kinase still bound, per cent of control: 86%
[13]
  kinase still bound, per cent of control: 8.9%
[14]
  kinase still bound, per cent of control: 17%
[15]
  kinase still bound, per cent of control: 57%
[16]
  kinase still bound, per cent of control: 100%
[17]
  kinase still bound, per cent of control: 48%
[18]
  kinase still bound, per cent of control: 51%
[19]
  kinase still bound, per cent of control: 1%
[20]
  kinase still bound, per cent of control: 85%
[21]
  kinase still bound, per cent of control: 100%
[22]
  kinase still bound, per cent of control: 42%
[23]
  kinase still bound, per cent of control: 56%
[24]
  kinase still bound, per cent of control: 2.4%
[25]
  kinase still bound, per cent of control: 54%
[26]
  kinase still bound, per cent of control: 100%
[27]
  kinase still bound, per cent of control: 15%
[28]
  kinase still bound, per cent of control: 75%
[29]
  kinase still bound, per cent of control: 100%
[30]
  kinase still bound, per cent of control: 100%
[31]
  kinase still bound, per cent of control: 100%
[32]
  kinase still bound, per cent of control: 46%
[33]
  kinase still bound, per cent of control: 100%
[34]
  kinase still bound, per cent of control: 0.2%
[35]
  kinase still bound, per cent of control: 95%
[36]
  kinase still bound, per cent of control: 100%
[37]
  kinase still bound, per cent of control: 88%
[38]
  kinase still bound, per cent of control: 59%
[39]
  kinase still bound, per cent of control: 33%
[40]
  kinase still bound, per cent of control: 100%
